Test system: U2OS cells
Test: U2OS cells plated on 2D alginate substrates: spreading, YAP localization, proliferation
Format: cell-based, human
Details: 10 μM, initial Young's modulus 1.4 kPa, RGD 1500
Protocol: Plating of cells on gels. 1 mm thick alginate hydrogels were prepared as previously described (Zhao et al. J. Appl. Phys. 107, 63509 (2010); and Huebsch et al. Nat Mater 9, 518-526 (2010)). Following gelation, 15 mm disks were punched out, and these disks were washed thoroughly 4 times over 2 days in serum free media to remove any excess calcium. […] Cells were allowed to spread for 20 hours, and then were fixed and stained for analysis. Only isolated cells, without any cell-cell contacts, were analyzed. Immunohistochemistry. For immunohistochemical staining, media was first removed from the gels. The gels were then fixed with 4% paraformaldehyde in serum free DMEM at 37° C. for 30-45 minutes. Gels were then washed 3 times in PBS containing calcium (cPBS). Gels from 3D studies were then incubated overnight in 30% sucrose in cPBS at 4° C. […] Images of all single cells were then thresholded manually based on the actin stain, and the area of the thresholded cell body was determined using a custom macro in ImageJ (NIH). […] The YAP nuclear localization ratio was then determined as the summed intensity of the YAP signal within the nucleus normalized by the nuclear area divided by the summed intensity of the YAP signal outside of the nucleus normalized by the non-nuclear cytoskeleton area.

For C[C@@H](N)[C@H]1CC[C@H](C(=O)Nc2ccncc2)CC1 [Y-27632], the “effect on increased cell spreading on stress relaxing substrate” value was “abrogated the increased cell spreading”.
